In ChEMBL document CHEMBL1201862, “PubChem BioAssay data set” (2004):
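Grown in 96-well plates, cells were treated for 48 hours with each compound at five concentrations. Insufficient inhibition: endpoint recorded as highest concentration tested. At the GI50, growth is halved.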 Active and inactive are the calls of the source. Rule as the data show it: active = GI50 up to about 1.1 µM and inactive = higher.

What was measured:
Test in all cases: NCI-60 cell line screen, 48 h
786-0 = tested on: 786-0
A498 = tested on: A498
A549 = tested on: A549
ACHN = tested on: ACHN
CAKI-1 = tested on: CAKI-1
CCRF-CEM = tested on: CCRF-CEM
COLO 205 = tested on: COLO 205
DU-145 = tested on: DU-145
EKVX = tested on: EKVX
HCC 2998 = tested on: HCC 2998
HCT-15 = tested on: HCT-15
HL-60 = tested on: HL-60
HOP-62 = tested on: HOP-62
HOP-92 = tested on: HOP-92
HT-29 = tested on: HT-29
Hs-578T = tested on: Hs-578T
IGROV-1 = tested on: IGROV-1
K562 = tested on: K562
KM12 = tested on: KM12
LOX IMVI = tested on: LOX IMVI
M14 = tested on: M14
MCF7 = tested on: MCF7
MDA-MB-231 = tested on: MDA-MB-231
MDA-MB-435 = tested on: MDA-MB-435
MDA-N = tested on: MDA-N
MOLT-4 = tested on: MOLT-4
Malme-3M = tested on: Malme-3M
NCI-H226 = tested on: NCI-H226
NCI-H23 = tested on: NCI-H23
NCI-H460 = tested on: NCI-H460
NCI-H522 = tested on: NCI-H522
NCI/ADR-RES = tested on: NCI/ADR-RES
OVCAR-3 = tested on: OVCAR-3
OVCAR-4 = tested on: OVCAR-4
OVCAR-5 = tested on: OVCAR-5
OVCAR-8 = tested on: OVCAR-8
PC-3 = tested on: PC-3
RPMI-8226 = tested on: RPMI-8226
RXF 393 = tested on: RXF 393
SF-268 = tested on: SF-268
SF-295 = tested on: SF-295
SF-539 = tested on: SF-539
SK-MEL-28 = tested on: SK-MEL-28
SK-MEL-2 = tested on: SK-MEL-2
SK-MEL-5 = tested on: SK-MEL-5
SK-OV-3 = tested on: SK-OV-3
SNB-19 = tested on: SNB-19
SNB-75 = tested on: SNB-75
SR = tested on: SR
SW-620 = tested on: SW-620
T47D = tested on: T47D
TK-10 = tested on: TK-10
U-251 = tested on: U-251
UACC-257 = tested on: UACC-257
UACC-62 = tested on: UACC-62
UO-31 = tested on: UO-31
BT-549 = tested on: BT-549
HCT-116 = tested on: HCT-116
SN12C = tested on: SN12C

For O[C@@]1(C#Cc2ccc3c(c2)OCO3)CCC[C@H]1NCc1ccccc1, the GI50 (786-0) was 17.5 µM (inactive), the GI50 (A498) was 28.6 µM (inactive) and the GI50 (A549) was 31.3 µM (inactive). For the same compound, the GI50 (ACHN) was 37.2 µM (inactive), the GI50 (CAKI-1) was 28.4 µM (inactive) and the GI50 (CCRF-CEM) was 33.8 µM (inactive). The GI50 (COLO 205) was 18.3 µM (inactive), the GI50 (DU-145) was 47.2 µM (inactive) and the GI50 (EKVX) was 33.5 µM (inactive). The GI50 (HCC 2998) was 17.1 µM (inactive), the GI50 (HCT-15) was 19.1 µM and the GI50 (HL-60) was 18.4 µM (inactive). The GI50 (HOP-62) was 26.5 µM (inactive), the GI50 (HOP-92) was 13.7 µM (inactive) and the GI50 (HT-29) was 22.9 µM (inactive). The GI50 (Hs-578T) was 21.2 µM (inactive), the GI50 (IGROV-1) was 14.1 µM (inactive) and the GI50 (K562) was 18.7 µM (inactive). The GI50 (KM12) was 20 µM (inactive), the GI50 (LOX IMVI) was 15.6 µM (inactive) and the GI50 (M14) was 15.7 µM (inactive). The GI50 (MCF7) was 22.5 µM (inactive), the GI50 (MDA-MB-231) was 24.9 µM (inactive) and the GI50 (MDA-MB-435) was 21 µM (inactive). For the same compound, the GI50 (MDA-N) was 16.9 µM (inactive), the GI50 (MOLT-4) was 15.9 µM (inactive) and the GI50 (Malme-3M) was 15.2 µM (inactive). The GI50 (NCI-H226) was 15.9 µM (inactive), the GI50 (NCI-H23) was 29.6 µM (inactive) and the GI50 (NCI-H460) was 24.7 µM (inactive). For the same compound, the GI50 (NCI-H522) was 15.3 µM (inactive), the GI50 (NCI/ADR-RES) was 16.7 µM (inactive) and the GI50 (OVCAR-3) was 20.4 µM (inactive). The GI50 (OVCAR-4) was 38.6 µM (inactive), the GI50 (OVCAR-5) was 34.8 µM (inactive) and the GI50 (OVCAR-8) was 22.8 µM (inactive). For the same compound, the GI50 (PC-3) was 19.2 µM (inactive), the GI50 (RPMI-8226) was 24 µM (inactive) and the GI50 (RXF 393) was 24.3 µM (inactive). The GI50 (SF-268) was 36.7 µM (inactive), the GI50 (SF-295) was 19.8 µM (inactive) and the GI50 (SF-539) was 16 µM (inactive). The GI50 (SK-MEL-28) was 17.6 µM (inactive), the GI50 (SK-MEL-2) was 16.2 µM (inactive) and the GI50 (SK-MEL-5) was 19.4 µM (inactive). The GI50 (SK-OV-3) was 35.7 µM (inactive), the GI50 (SNB-19) was 22.5 µM (inactive) and the GI50 (SNB-75) was 27.8 µM (inactive). The GI50 (SR) was 23.2 µM (inactive), the GI50 (SW-620) was 31.4 µM (inactive) and the GI50 (T47D) was 18.7 µM (inactive). The GI50 (TK-10) was 27.7 µM (inactive), the GI50 (U-251) was 22.9 µM (inactive) and the GI50 (UACC-257) was 24.2 µM (inactive). For the same compound, the GI50 (UACC-62) was 16.9 µM (inactive) and the GI50 (UO-31) was 18.6 µM (inactive).

Nc1cc(N2CCCC2)nc(=O)n1Cc1ccccc1 was tested, and the GI50 (786-0) was > 100 µM (inactive), the GI50 (A549) was > 100 µM (inactive) and the GI50 (ACHN) was > 100 µM (inactive). For the same compound, the GI50 (BT-549) was > 100 µM (inactive), the GI50 (CAKI-1) was > 100 µM (inactive) and the GI50 (CCRF-CEM) was > 100 µM (inactive). The GI50 (COLO 205) was > 100 µM (inactive), the GI50 (DU-145) was > 100 µM (inactive) and the GI50 (EKVX) was > 100 µM (inactive). For the same compound, the GI50 (HCT-116) was > 100 µM (inactive), the GI50 (HCT-15) was > 100 µM and the GI50 (HL-60) was > 100 µM (inactive). For the same compound, the GI50 (HOP-62) was > 100 µM (inactive), the GI50 (HOP-92) was > 100 µM (inactive) and the GI50 (HT-29) was > 100 µM (inactive). For the same compound, the GI50 (IGROV-1) was > 100 µM (inactive), the GI50 (K562) was > 100 µM (inactive) and the GI50 (KM12) was > 100 µM (inactive). The GI50 (LOX IMVI) was > 100 µM (inactive), the GI50 (M14) was > 100 µM (inactive) and the GI50 (MCF7) was > 100 µM (inactive). For the same compound, the GI50 (MDA-MB-231) was > 100 µM (inactive), the GI50 (MDA-MB-435) was > 100 µM (inactive) and the GI50 (MOLT-4) was > 100 µM (inactive). For the same compound, the GI50 (Malme-3M) was > 100 µM (inactive), the GI50 (NCI-H226) was > 100 µM (inactive) and the GI50 (NCI-H23) was > 100 µM (inactive). The GI50 (NCI-H460) was > 100 µM (inactive), the GI50 (NCI-H522) was > 100 µM (inactive) and the GI50 (NCI/ADR-RES) was > 100 µM (inactive). The GI50 (OVCAR-4) was > 100 µM (inactive), the GI50 (OVCAR-5) was > 100 µM (inactive) and the GI50 (OVCAR-8) was > 100 µM (inactive). For the same compound, the GI50 (PC-3) was > 100 µM (inactive), the GI50 (RPMI-8226) was > 100 µM (inactive) and the GI50 (SF-268) was 39.5 µM (inactive). The GI50 (SF-295) was > 100 µM (inactive), the GI50 (SF-539) was > 100 µM (inactive) and the GI50 (SK-MEL-2) was > 100 µM (inactive). The GI50 (SK-MEL-5) was > 100 µM (inactive), the GI50 (SN12C) was > 100 µM (inactive) and the GI50 (SNB-19) was > 100 µM (inactive). For the same compound, the GI50 (SNB-75) was > 100 µM (inactive), the GI50 (SR) was > 100 µM (inactive) and the GI50 (SW-620) was > 100 µM (inactive). For the same compound, the GI50 (TK-10) was > 100 µM (inactive), the GI50 (U-251) was > 100 µM (inactive) and the GI50 (UACC-257) was > 100 µM (inactive).
